# Assay results: patent US9540691B2, “Assays and methods for selecting a treatment regimen for a subject with depression” (THE GENERAL HOSPITAL CORPORATION, priority 2011, dated 2017)
# Like-named read-outs stand apart in the source and are kept apart here.
# Test system: MDD patients carrying the indicated conditions
# Conditions: with SSRI
# Protocol: Folate levels are classified as either low (<=2.5 ng/ml) or normal; and homocysteine levels as either normal or elevated (>=[…]). The presence or absence of at least one […] allele for the MTHFR gene are entered as a dichotomous variable (present or absent). […] Using folate as an example predicator, the presence or absence of a low serum-folate level along with treatment assignment can be entered in a 2×2, factorial ANOVA, using depression improvement scores (baseline minus endpoint HAM-D-17 scores) as the dependant variable. […] Similar analyses (i.e. separate 2×2 ANOVA's) can be performed substituting the presence of low folate levels for the presence of other predictors as described herein. Similarly, the effect of other predictors can be indicated by the interaction term representing the potential modulating influence of those variables.
# Particularly, specific genetic and biomarkers that were assessed include the following: • (a) BMI calculation of at least about 30 kg/m^2; • (b) an expression ratio of SAM/SAH smaller than 2.8 (e.g., 2.71) as measured in a plasma sample; • (c) a level of 4-HNE no less than 3.28 μg/mL (as measured in a plasma sample); • (d) presence of rare variants CT or TT at position 677 of SEQ ID NO: 1 corresponding to a portion of a genomic nucleic acid sequence of methylenetetrahydrofolate reductase (MTHFR) (abbreviated as “MTHFR 677” below); • (e) presence of rare variants AG or GG at position 2756 of SEQ ID NO: 2 corresponding to a portion of genomic nucleic acid sequence of methionine synthase (MTR) (abbreviated as “MTR 2756” below); and • (f) presence of rare variants AG or GG at position 66 of SEQ ID NO: 3 corresponding to a portion of genomic nucleic acid sequence of methionine synthase reductase (MTRR) (abbreviated as “MTRR 66” below).
# The efficacy effect is determined by measuring the mean change in the HAMD-17 score and HAMD-28 score by the end of Phase I and Phase II, as compared to the baseline.
# [1] = Phase II, interaction of BMI with the treatment
# [2] = Phase II, interaction of HNE-his with the treatment
# [3] = Phase II, interaction of SAM/SAH with the treatment
# [4] = Pooled phases, 25 =< BMI < 30 kg/m^2 (18, 10)
# [5] = Pooled phases, BMI < 25 (14, 7)
structure (smiles),measurement,setting,value
"CN1c2c(nc(N)[nH]c2=O)NC[C@@H]1CNc1ccc(C(=O)N[C@@H](CCC(=O)O)C(=O)O)cc1 [6(S)-5-MTHF, 6(S)-5-methyltetrahydrofolate]","Effect, change in HAMD-28 score","Phase II, MTR 2756 AA and MTRR 66 AA",−8.000
same,"Effect, change in HAMD-17 score","Phase II, MTR 2756 AA and SAM/SAH >= median (24,12)",1.971
same,"Effect, change in HAMD-28 score","Phase II, MTR 2756 AA and SAM/SAH >= median",2.000
same,"Effect, change in HAMD-28 score","Phase II, MTR 2756 AA",−0.446
same,"Effect, change in HAMD-17 score","Phase II, MTR 2756 AG or GG and BMI >= 30 kg/m^2 (10,5)",−12.167
same,"Effect, change in HAMD-28 score","Phase II, MTR 2756 AG or GG and BMI >= 30 kg/m^2",−13.000
same,"Effect, change in HAMD-17 score","Phase II, MTR 2756 AG or GG and HNE-His >= median (13,7)",−8.417
same,"Effect, change in HAMD-28 score","Phase II, MTR 2756 AG or GG and HNE-His >= median = 3.28 (plasma sample)",−9.500
same,"Effect, change in HAMD-17 score","Phase II, MTR 2756 AG or GG and MTRR 66 AG or GG (15,7)",−4.667
same,"Effect, change in HAMD-17 score","Phase II, MTR 2756 AG or GG and MTRR 66 AG or GG and BMI >= 30 kg/m^2 (8,4)",−11.000
same,"Effect, change in HAMD-28 score","Phase II, MTR 2756 AG or GG and MTRR 66 AG or GG and BMI >= 30 kg/m^2",−12.000
same,"Effect, change in HAMD-17 score","Phase II, MTR 2756 AG or GG and MTRR 66 AG or GG and HNE-His >= median (10,4)",−11.000
same,"Effect, change in HAMD-28 score","Phase II, MTR 2756 AG or GG and MTRR 66 AG or GG and HNE-His >= median",−12.000
same,"Effect, change in HAMD-17 score","Phase II, MTR 2756 AG or GG and MTRR 66 AG or GG and SAM/SAH < median (8,3)",−6.500
same,"Effect, change in HAMD-28 score","Phase II, MTR 2756 AG or GG and MTRR 66 AG or GG and SAM/SAH < median = 2.71 (plasma sample)",−10.500
same,"Effect, change in HAMD-28 score","Phase II, MTR 2756 AG or GG and MTRR 66 AG or GG",−6.583
same,"Effect, change in HAMD-17 score","Phase II, MTR 2756 AG or GG and SAM/SAH < median (10,4)",−2.500
same,"Effect, change in HAMD-28 score","Phase II, MTR 2756 AG or GG and SAM/SAH < median = 2.71 (plasma sample)",−7.500
same,"Effect, change in HAMD-17 score","Phase II, MTR 2756 AG/GG (20,11)",−3.600
same,"Effect, change in HAMD-28 score","Phase II, MTR 2756 AG/GG",−5.300
same,"Effect, change in HAMD-17 score","Phase II, MTRR 66 AA and HNE-His < median (8,5)",−1.667
same,"Effect, change in HAMD-28 score","Phase II, MTRR 66 AA and HNE-His < median = 3.28 (plasma sample)",−2.000
same,"Effect, change in HAMD-17 score","Phase II, MTRR 66 AA and SAM/SAH >= median (9,6)",−3.000
same,"Effect, change in HAMD-28 score","Phase II, MTRR 66 AA and SAM/SAH >= median",−3.333
same,"Effect, change in HAMD-17 score","Phase II, MTRR 66 AG or GG and HNE-His >= median (24,11)",−3.500
same,"Effect, change in HAMD-28 score","Phase II, MTRR 66 AG or GG and HNE-His >= median",−4.071
same,"Effect, change in HAMD-17 score","Phase II, MTRR 66 AG or GG and SAM/SAH < median (24,10)",−6.190
same,"Effect, change in HAMD-28 score","Phase II, MTRR 66 AG or GG and SAM/SAH < median = 2.71 (plasma sample)",−7.381
same,"Effect, change in HAMD-17 score","Phase II, SAM/SAH < median and HNE-His >= median (19,7)",−9.000
same,"Effect, change in HAMD-28 score","Phase II, SAM/SAH < median and HNE-His >= median",−12.000
same,"Effect, change in HAMD-17 score","Phase II, SAM/SAH >= median and HNE-His < median (18,8)",4.000
same,"Effect, change in HAMD-28 score","Phase II, SAM/SAH >= median and HNE-His < median",4.500
same,"Effect, change in HAMD-17 score: BMI*treat",[1],0.113
same,"Effect, change in HAMD-28 score: BMI*treat",[1],0.082
same,"Effect, change in HAMD-17 score: HNE-his*treat",[2],2.027
same,"Effect, change in HAMD-28 score: HNE-his*treat",[2],2.362
same,"Effect, change in HAMD-17 score: SAM/SAH*treat",[3],1.483
same,"Effect, change in HAMD-28 score: SAM/SAH*treat (last line)",[3],1.806
same,"Effect, change in HAMD-17 score: baseHAMD-17*treat","Phase II, interaction of base HAMD-17 with the treatment",−0.249
same,"Effect, change in HAMD-28 score: SAM/SAH*treat (first line under HAMD28)","Phase II, interaction with the treatment",1.483
same,"Effect, change in HAMD-17 score",[4],3.331
same,"Effect, change in HAMD-28 score",[4],2.054
same,"Effect, change in HAMD-17 score",[5],−1.248
same,"Effect, change in HAMD-28 score",[5],−1.018
same,"Effect, change in HAMD-17 score","Pooled phases, BMI < 30 kg/m^2 and HNE-His < median (19, 9)",4.738
same,"Effect, change in HAMD-28 score","Pooled phases, BMI < 30 kg/m^2 and HNE-His < median",4.253
same,"Effect, change in HAMD-17 score","Pooled phases, BMI < 30 kg/m^2 and SAM/SAH >= median (16,8)",2.583
same,"Effect, change in HAMD-28 score","Pooled phases, BMI < 30 kg/m^2 and SAM/SAH >= median",2.906
same,"Effect, change in HAMD-28 score","Pooled phases, BMI >= 30 kg/m^2 (40,21)",−4.660
same,"Effect, change in HAMD-17 score","Pooled phases, BMI >= 30 kg/m^2 and HNE-His >= median (23, 11)",−5.420
same,"Effect, change in HAMD-17 score","Pooled phases, BMI >= 30 kg/m^2 and SAM/SAH < median (21,9)",−7.302
same,"Effect, change in HAMD-28 score","Pooled phases, BMI >= 30 kg/m^2 and SAM/SAH < median = 2.71 (plasma sample)",−7.572
same,"Effect, change in HAMD-17 score","Pooled phases, MTHFR 677 CC and BMI < 30 kg/m^2 (17,8)",1.356
same,"Effect, change in HAMD-28 score","Pooled phases, MTHFR 677 CC and BMI < 30 kg/m^2",−0.234
same,"Effect, change in HAMD-17 score","Pooled phases, MTHFR 677 CC and HNE-His < median (20,11)",−1.050
same,"Effect, change in HAMD-28 score","Pooled phases, MTHFR 677 CC and HNE-His < median = 3.28 (plasma sample)",−1.340
